Data as given in patent publication US5672715A, “Herbicidal substituted 3-aryl-pyrazoles” (Monsanto Company, priority 1995, dated 1997).
Where “and” joins values, the source holds several entries; their conditions need not be identical. Equal entries are not always repeated.

How the values were obtained:
Assay type in all cases: in vivo
[1] = test system: Bedstraw Catchweed; assay: pre-emergence herbicide test
How it was run: (§1)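 Percent inhibition of emergence and growth was recorded roughly 14 days after seeding. Compound was incorporated into, or applied onto, a topsoil cover layer over seeds in pans kept in a greenhouse and watered from below.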

[2] = test system: Blackgrass; assay: pre-emergence herbicide test
How it was run: as §1

[3] = test system: Common Chickweed; assay: pre-emergence herbicide test; details: pre-emergence, 0.0071 lb/A; read-out: % plant inhibition
How it was run: as §1

[4] = test system: Wheat; assay: pre-emergence herbicide test; details: Triticum aestivum, pre-emergence, read-out: % plant inhibition
How it was run: as §1

[5] = test system: Bedstraw Catchweed; assay: post-emergence herbicide test; details: Galium aparine, post-emergence, read-out: % plant inhibition; for inhibition at 7.95803 g/ha: 0.0071 lb/A; for inhibition at 40.0143 g/ha: 0.0357 lb/A; for inhibition at 200.072 g/ha: 0.1785 lb/A; for inhibition at 1000.92 g/ha: 0.893 lb/A
How it was run: (§2)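 Plants were raised from seed in topsoil pans in the greenhouse and treated post-emergence at two to three weeks of age. Candidate chemical was applied in spray solution or suspension containing about 0.4% emulsifier at 1870 L/Ha. Activity recorded as percent inhibition.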

[6] = test system: Cocklebur; assay: post-emergence herbicide test; details: Xanthium strumarium, post-emergence, read-out: % plant inhibition; for inhibition at 7.95803 g/ha: 0.0071 lb/A; for inhibition at 40.0143 g/ha: 0.0357 lb/A; for inhibition at 200.072 g/ha: 0.1785 lb/A; for inhibition at 1000.92 g/ha: 0.893 lb/A
How it was run: as §2

[7] = test system: Common Chickweed; assay: post-emergence herbicide test; details: post-emergence, read-out: % plant inhibition; for inhibition at 7.95803 g/ha: 0.0071 lb/A; for inhibition at 40.0143 g/ha: 0.0357 lb/A; for inhibition at 200.072 g/ha: 0.1785 lb/A; for inhibition at 1000.92 g/ha: 0.893 lb/A
How it was run: as §2

[8] = test system: Morning Glory; assay: post-emergence herbicide test; details: Ipomoea, post-emergence, read-out: % plant inhibition; for inhibition at 7.95803 g/ha: 0.0071 lb/A; for inhibition at 40.0143 g/ha: 0.0357 lb/A; for inhibition at 200.072 g/ha: 0.1785 lb/A; for inhibition at 1000.92 g/ha: 0.893 lb/A
How it was run: as §2

[9] = test system: Yellow Nutsedge; assay: post-emergence herbicide test; details: Cyperus, read-out: % plant inhibition; for inhibition at 7.95803 g/ha: 0.0071 lb/A; for inhibition at 40.0143 g/ha: 0.0357 lb/A; for inhibition at 200.072 g/ha: 0.1785 lb/A; for inhibition at 1000.92 g/ha: 0.893 lb/A
How it was run: as §2

[10] = test system: Broadleaf Signalgrass; assay: pre-emergence herbicide test; details: Urochloa platyphylla, 0.25 lb/A, read-out: % plant inhibition
How it was run: as §1

[11] = test system: Seedling Johnsongrass; assay: pre-emergence herbicide test; details: Sorghum halepense, pre-emergence, 0.25 lb/A; read-out: % plant inhibition
How it was run: as §1

[12] = test system: Shattercane; assay: pre-emergence herbicide test; details: 0.25 lb/A, read-out: % plant inhibition
How it was run: as §1

[13] = test system: Wild Proso Millet; assay: pre-emergence herbicide test; details: 0.25 lb/A, read-out: % plant inhibition
How it was run: as §1

COc1cc(-c2nn(C)c(C(F)(F)F)c2C)c(F)cc1[N+](=O)[O-] [Compound 36]
% plant inhibition ([1]; 0.1785 lb/A): 80% | inhibition at 7.95803 g/ha ([1]; Galium aparine, pre-emergence, 0.0071 lb/A, read-out: % plant inhibition): 0% | inhibition at 200.072 g/ha ([1]; Galium aparine, pre-emergence, 0.1785 lb/A, read-out: % plant inhibition): 100% | inhibition at 1000.92 g/ha ([1]; Galium aparine, pre-emergence, 0.893 lb/A, read-out: % plant inhibition): 100% | % plant inhibition ([2]; 0.893 lb/A): 100% and 50% | inhibition at 7.95803 g/ha ([2]; Alopecurus myosuroides, pre-emergence, 0.0071 lb/A, read-out: % plant inhibition): 0% | inhibition at 40.0143 g/ha ([2]; Alopecurus myosuroides, pre-emergence, 0.0357 lb/A, read-out: % plant inhibition): 0% | inhibition at 7.95803 g/ha [3]: 0% | inhibition at 7.95803 g/ha ([4]; 0.0071 lb/A): 0% | inhibition at 40.0143 g/ha ([4]; 0.0357 lb/A): 0% | inhibition at 7.95803 g/ha [5]: 0% | inhibition at 40.0143 g/ha [5]: 25% | inhibition at 200.072 g/ha [5]: 50% | inhibition at 1000.92 g/ha [5]: 75% | inhibition at 7.95803 g/ha [6]: 75% | inhibition at 40.0143 g/ha [6]: 0% | inhibition at 200.072 g/ha [6]: 60% | inhibition at 1000.92 g/ha [6]: 98% | inhibition at 7.95803 g/ha [7]: 85% | inhibition at 40.0143 g/ha [7]: 15% | inhibition at 200.072 g/ha [7]: 35% | inhibition at 1000.92 g/ha [7]: 65% | inhibition at 7.95803 g/ha [8]: 20% | inhibition at 40.0143 g/ha [8]: 40% | inhibition at 200.072 g/ha [8]: 85% | inhibition at 1000.92 g/ha [8]: 100% | inhibition at 7.95803 g/ha [9]: 0% | inhibition at 40.0143 g/ha [9]: 0% | inhibition at 200.072 g/ha [9]: 0% | inhibition at 1000.92 g/ha [9]: 25%

C#CCOc1cc(-c2nn(C)c(C(F)(F)F)c2C)c(F)cc1Cl [Compound 39]
inhibition at 280.212 g/ha [10]: 100% | inhibition at 280.212 g/ha [11]: 100% | inhibition at 280.212 g/ha [12]: 100% | inhibition at 280.212 g/ha [13]: 100% | inhibition at 7.95803 g/ha [5]: 0% | inhibition at 40.0143 g/ha [5]: 100% | inhibition at 200.072 g/ha [5]: 100% | inhibition at 1000.92 g/ha [5]: 100% | inhibition at 7.95803 g/ha [6]: 80% | inhibition at 40.0143 g/ha [6]: 98% | inhibition at 200.072 g/ha [6]: 80% | inhibition at 1000.92 g/ha [6]: 100% | inhibition at 7.95803 g/ha [7]: 0% | inhibition at 40.0143 g/ha [7]: 100% | inhibition at 200.072 g/ha [7]: 100% | inhibition at 1000.92 g/ha [7]: 100% | inhibition at 7.95803 g/ha [8]: 95% | inhibition at 40.0143 g/ha [8]: 80% | inhibition at 200.072 g/ha [8]: 100% | inhibition at 1000.92 g/ha [8]: 95% | inhibition at 7.95803 g/ha [9]: 0% | inhibition at 40.0143 g/ha [9]: 40% | inhibition at 200.072 g/ha [9]: 10% | inhibition at 1000.92 g/ha [9]: 30%

Cc1c(-c2cc(O)c(Cl)cc2F)nn(C)c1C(F)(F)F [Compound 40]
inhibition at 40.0143 g/ha [5]: 20% | inhibition at 200.072 g/ha [5]: 60% | inhibition at 1000.92 g/ha [5]: 98% | inhibition at 5043.82 g/ha ([5]; 4.5 lb/A): 100% | inhibition at 40.0143 g/ha [6]: 80% | inhibition at 200.072 g/ha [6]: 65% | inhibition at 1000.92 g/ha [6]: 70% | inhibition at 5043.82 g/ha ([6]; 4.5 lb/A): 100% | inhibition at 40.0143 g/ha [7]: 15% | inhibition at 200.072 g/ha [7]: 50% | inhibition at 1000.92 g/ha [7]: 98% | inhibition at 5043.82 g/ha ([7]; 4.5 lb/A): 98% | inhibition at 40.0143 g/ha [8]: 50% | inhibition at 200.072 g/ha [8]: 70% | inhibition at 1000.92 g/ha [8]: 80% | inhibition at 5043.82 g/ha ([8]; 4.5 lb/A): 100% | inhibition at 40.0143 g/ha [9]: 70% | inhibition at 200.072 g/ha [9]: 55% | inhibition at 1000.92 g/ha [9]: 0% | inhibition at 5043.82 g/ha ([9]; 4.5 lb/A): 0%
